# Reference: PubChem BioAssay (NCI)
# Values joined by “and” are separate entries in the source; they are usually repeats but may differ in a detail not shown here. Equal values may be shown once.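 Cells were grown in 96-well plates and exposed to each compound for 48 hours at five concentrations; endpoints were interpolated linearly between bracketing concentrations, or set to the highest concentration if not reached. GI50 is the concentration that inhibits growth by half. TGI: concentration producing complete growth inhibition.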
# Tests used:
# Experiment in all cases: NCI anticancer screen, dose series, 48 h
# LOX IMVI melanoma = system: LOX IMVI melanoma
# MALME-3M melanoma = system: MALME-3M melanoma
# A549 NSCLC = system: A549 NSCLC
# HT29 colon = system: HT29 colon
# OVCAR-5 ovarian = system: OVCAR-5 ovarian
# OVCAR-3 ovarian = system: OVCAR-3 ovarian
# HL-60(TB) leukemia = system: HL-60(TB) leukemia
# 786-0 renal = system: 786-0 renal
# NCI-H23 lung = system: NCI-H23 lung
# TK-10 renal = system: TK-10 renal
SMILES,GI50 (LOX IMVI melanoma),TGI (LOX IMVI melanoma),GI50 (MALME-3M melanoma),TGI (MALME-3M melanoma),GI50 (A549 NSCLC),TGI (A549 NSCLC),GI50 (HT29 colon),GI50 (OVCAR-5 ovarian),TGI (OVCAR-5 ovarian),GI50 (OVCAR-3 ovarian),TGI (OVCAR-3 ovarian),GI50 (HL-60(TB) leukemia),TGI (HL-60(TB) leukemia),GI50 (786-0 renal),TGI (786-0 renal),TGI (NCI-H23 lung),GI50 (TK-10 renal),TGI (HT29 colon),TGI (TK-10 renal),GI50 (NCI-H23 lung)
CC[C@@]1(O)C(=O)OCc2c1cc1n(c2=O)Cc2cc3cc(N)ccc3nc2-1,0.0202 µM,0.207 µM and 0.0665 µM,0.101 µM and 0.037 µM,1.21 µM and 0.478 µM,0.0373 µM and 0.0155 µM,2.24 µM and 1.26 µM,0.0176 µM and 0.0225 µM,0.0195 µM and 0.11 µM,0.109 µM and 0.627 µM,0.0847 µM and 0.0653 µM,0.608 µM and 0.346 µM,0.0718 µM,1.03 µM,0.0119 µM,0.208 µM and 0.027 µM,0.0773 µM and 0.0247 µM,0.385 µM and 0.169 µM,,,
Cc1c2cc[n+](C)cc2c(C)c2c1[nH]c1ccc(O)c(OCC(F)(F)F)c12,,46.5 µM,,8.47 µM,,12.4 µM,,,30.5 µM,,7.4 µM,,13 µM,,9.35 µM,5.48 µM,,> 55 µM,29.1 µM,
O=[N+]([O-])c1ccc2c(c1)[O][Sn]([I])([I])[O]2,89.4 µM,> 100 µM,> 100 µM,> 100 µM,> 100 µM,> 100 µM,> 100 µM,> 100 µM,> 100 µM,> 100 µM,> 100 µM,> 100 µM,> 100 µM,> 100 µM,> 100 µM,> 100 µM,> 100 µM,> 100 µM,> 100 µM,60 µM
Cc1c(Cl)cccc1NC(=O)CC1C(=O)Nc2ccccc2S1(=O)=O (centres undefined),,29.1 µM,,42.4 µM,,33.2 µM,,,41.5 µM,,31.7 µM,,16 µM,,32.4 µM,37.3 µM,,38.2 µM,56.6 µM,
CCN(CC)CCNc1n[n+]([O-])c2ccccc2[n+]1[O-],,28.3 µM,,20.7 µM and 20.8 µM,5.07 µM and 10.2 µM,22.3 µM and 29.6 µM,,,38.6 µM and 35.8 µM,,26.2 µM,,7.61 µM and 8.95 µM,,64.5 µM and 21 µM,19 µM and 33.7 µM,,39.2 µM and 42.7 µM,> 68.5 µM and 41.8 µM,4.31 µM and 9.76 µM
Cc1cc(-c2nnc3n2CCCCC3)c(C)n1-c1ccc(Cl)c(Cl)c1,12.1 µM,32.2 µM,13.8 µM,30.4 µM,16.8 µM,65.8 µM,16 µM,39 µM,> 100 µM,10.2 µM,23.7 µM,20.6 µM,61.2 µM,22.9 µM,56.7 µM,35.2 µM,20.1 µM,38.1 µM,65.3 µM,12.3 µM
O=C1c2ccccc2-n2c1nc1ccccc1c2=O,,25.1 µM,,29 µM,,17 µM,,,29.9 µM,,30.2 µM,,41.4 µM,,> 100 µM,33.8 µM,,51.2 µM,> 100 µM,
Fc1cccc(Cl)c1/C=N\N=C1c2ccccc2-c2ccccc21,,> 100 µM,,> 100 µM,,> 100 µM,,,> 100 µM,,> 100 µM,,> 100 µM,,> 100 µM,> 100 µM,,> 100 µM,> 100 µM,
CC(C)[C@H]1C(=O)N[C@@H](CCCN=C(N)N)C(=O)NCC(=O)N[C@@H](CC(=O)O)C(=O)N[C@H](Cc2ccccc2)C(=O)N1C,15.5 µM,> 100 µM,> 100 µM,> 100 µM,31.8 µM,> 100 µM,> 61.1 µM,1.34 µM,> 100 µM,> 100 µM,> 100 µM,> 100 µM,> 100 µM,5.54 µM,> 100 µM,67.6 µM,1.43 µM,> 100 µM,4.06 µM,10.6 µM
O=C(O)CSc1ncccc1[N+](=O)[O-],,> 100 µM,,> 100 µM,,> 100 µM,,,> 100 µM,,> 100 µM,,> 100 µM,,> 100 µM,> 100 µM,,> 100 µM,> 100 µM,
N#C[C@@H]1C(n2ccc(N)nc2=O)O[C@H](CO)[C@H]1O (some centres undefined),11.4 µM,> 100 µM,> 55.4 µM,> 100 µM,6.16 µM,> 100 µM,> 85 µM,> 75.2 µM,> 100 µM,> 100 µM,> 100 µM,29.4 µM,> 100 µM,13.2 µM,> 100 µM,> 100 µM,> 100 µM,> 100 µM,> 100 µM,4.51 µM
CCOC(=O)COS(=O)(=O)C(F)(F)F,,34 µM,,> 100 µM,,> 100 µM,,,> 100 µM,,> 100 µM,,> 100 µM,,> 100 µM,> 100 µM,,> 100 µM,> 100 µM,
C1=CC=C2NCCOCCNC3=CC=CC=CC3=NCCOCCN=C2C=C1,,> 100 µM,,76 µM,,> 100 µM,,,> 100 µM,,> 100 µM,,70.5 µM,,> 100 µM,> 100 µM,,62.6 µM,> 100 µM,
CC(C)(C)NC(=O)[C@H]1C[C@H]2CCCC[C@H]2CN1C[C@@H](O)[C@H](Cc1ccccc1)NC(=O)[C@H](CC(N)=O)NC(=O)c1ccc2ccccc2n1,14.6 µM,32.1 µM,17.7 µM,37.8 µM,13.2 µM,31 µM,9.38 µM,16.7 µM,30.5 µM,13.5 µM,33.5 µM,4.22 µM,26.3 µM,13.8 µM,31.1 µM,33.2 µM,15.4 µM,28.2 µM,36.6 µM,16 µM
